Several values for one entry are separate records, joined by “and”; a condition that tells them apart may be missing. Identical values can stand only once.
These compounds were tested against Transforming acidic coiled-coil-containing protein 3 (Homo sapiens) (UniProt Q9Y6A5) (assay: inhibition of ARNT PAS-B/TACC3 complex formation – biochemical, AlphaScreen, cherry-picked samples, confirmation (AID 651703;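 also: TACC3 partner is the GST-tagged E629A mutant dimer; hits lower the signal meaning they disrupt ARNT binding to TACC3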)). Details: AlphaScreen His-ARNT PAS-B / GST-TACC3 binding, luminescence.
COc1ccc(NC(=O)Nc2ccc3c(c2)CC(=O)N([C@@H](C)CO)C[C@@H](C)[C@H](CN(C)Cc2ccc(Oc4ccccc4)cc2)O3)cc1 showed an AC50 of 23.2 µM.
Cc1cccc(NC(=O)CCC(=O)N/N=C/c2ccc(O)cc2O)c1 showed an AC50 of 22.4 µM.
With C/C(=N\NC(=O)C(C)Oc1ccc([N+](=O)[O-])cc1)c1ccccn1 (stereo unspecified) the AC50 was 4.39 µM.
With C[C@@H](Nc1nc(-c2ccccn2)nnc1-c1ccccc1)C1CCCCC1 the AC50 was 2.26 µM.
C[C@]12CC[C@H](O)CC1=CCC1C2CC[C@@]2(C)C1CC[C@@H]2NC(=O)[C@@H](N)Cc1cnc[nH]1 (stereo partly specified) gave an AC50 of 28.3 µM.
COc1cc(/C=N/Nc2nn3cnnc3c3ccccc23)ccc1O gave an AC50 of 6.83 µM.
Cc1ccc(C)c(S(=O)(=O)N2CCCOC2CNC(=O)C(=O)NCCCn2ccnc2)c1 (stereo unspecified) gave an AC50 of 4.16 µM.
Work on CC(C)(C)c1ccc(OCCNC(=O)c2ncn[nH]2)cc1 yielded an AC50 of 15.8 µM.
Oc1ccc(Cn2ccnc2)c2cccnc12 showed an AC50 of under 0.5 µM.
O=C(Cn1cncn1)N/N=C/c1cc([N+](=O)[O-])ccc1O showed an AC50 of 4.04 µM.
With CCOC(=O)N1CCN(C(c2cccnc2)c2ccc3cccnc3c2O)CC1 (stereo unspecified) the AC50 was 4.64 µM.
N[C@H]1CC[C@H](CCn2cc(-c3ccccn3)nn2)O[C@@H]1CO was tested, and the AC50 was 1.03 µM.
COc1cc(-c2nnc(NC(=O)CS(=O)(=O)c3ccc(F)cc3)o2)cc(OC)c1OC gave an AC50 of 24.3 µM.
CCN(CC)c1ccc(/C=N/N=C(N)N)c(O)c1 gave an AC50 of 38.9 µM.
CC(C)COCc1ccc(O)c2ncccc12 was tested, and the AC50 was 3.53 µM.
Cc1nc2ncccn2c1-c1csc(Nc2ccccc2)n1 was tested, and the AC50 was 41.6 µM.
Work on O=C(CSc1ccc(-c2ccccn2)nn1)NC1CCCCC1 yielded an AC50 of 2.56 µM.
CN1CCN(C(c2ccccn2)c2cc(Cl)c3cccnc3c2O)CC1 (stereo unspecified) gave an AC50 of 3.98 µM.
With O=C(NC[C@@H]1[C@H](c2ccccc2)[C@H](CO)N1Cc1ccccn1)C1CCC1 the AC50 was 28.2 µM.
For Oc1ccc(CN2CCc3ccccc3C2)c2cccnc12, the AC50 was 0.919 µM and 1.08 µM and 2.25 µM.
With C[C@@H]1CN([C@H](C)CO)C(=O)c2cc(NC(=O)Nc3ccc(C(F)(F)F)cc3)ccc2O[C@@H](C)CCCCO[C@H]1CN(C)Cc1ccc2c(c1)OCO2 the AC50 was 64.9 µM.
Cc1ccc(S(=O)(=O)CCC(=O)Nc2nc(-c3ccccn3)cs2)cc1 gave an AC50 of 10.5 µM.
For Cc1[nH]n(-c2ccccc2)c(=O)c1/C=N\NC(=O)C1COc2ccccc2O1 (stereo unspecified), the AC50 was 17.4 µM.
Work on O=C(NCCCn1ccnc1)C(=O)NCC1OCCN1S(=O)(=O)c1ccc(Cl)cc1 (stereo unspecified) yielded an AC50 of 10.8 µM.
Work on O=C(NN=C(c1ccccc1)c1ccccn1)c1ccccc1 yielded an AC50 of 16.9 µM.
With O=C(O)C1Nc2c(O)cc(Cl)c([N+](=O)[O-])c2C2C=CCC12 (stereo unspecified) the AC50 was 28.1 µM.
With CCC(=O)NC(c1cc(Cl)c2cccnc2c1O)C1CC1 (stereo unspecified) the AC50 was 9.34 µM.
c1ccc(-c2nnc(-c3ccccn3)nc2NCC2CC2)cc1 gave an AC50 of under 0.5 µM.
Compound O=S1(=O)N=C(N(CCO)/N=C/C=C/c2ccccc2)c2ccccc21 has an AC50 of 53.9 µM.
For Cc1ccc2ccc3cccnc3c2n1, the AC50 was 7.33 µM.
CCCCCc1cc(=O)oc2c(C(CCN(CC)CC)c3ccc(N(C)C)cc3)c(OC)cc(OC)c12 (stereo unspecified) showed an AC50 of 5.02 µM.
O=C(CSc1ccc(-c2ccccn2)nn1)Nc1cccc(F)c1 showed an AC50 of 1.16 µM.
In the case of CCN(CCCl)c1cc(CN(C)C)cc(NC(=O)c2ccc(C(=O)Nc3cc(CN(C)C)cc(N(CC)CCCl)c3)cc2)c1, the AC50 was 1.92 µM.
In the case of Cc1cc([N+](=O)[O-])cc(/C=N\NC(=O)C2COc3ccccc3O2)c1O (stereo unspecified), the AC50 was 36.3 µM.
COC(=O)c1ccc(NC(=O)CSc2ccc(-c3ccccn3)nn2)cc1 gave an AC50 of 2.57 µM.
Work on O=C(N[C@H]1CC[C@@H](CCn2cc(-c3ccccn3)nn2)O[C@H]1CO)c1ccncc1 yielded an AC50 of 9.53 µM.
Work on Cc1ccc(Nc2nc(N)nc(CN3CCCCCC3)n2)cc1 yielded an AC50 of 34.4 µM.
With COc1cc2c(cc1OC)-c1c3c(cc4c1[C@@H](C2)N(C)CC4)OCO3 the AC50 was 17.6 µM.
O=C(NCCCn1ccnc1)Nc1cccc(Cl)c1 was tested, and the AC50 was 9.64 µM.
Cc1cc(=O)[nH]c(-n2ncc(C#N)c2N)n1 gave an AC50 of 59.7 µM.
c1cncc(-c2nc(NCCCn3ccnc3)c3ccccc3n2)c1 showed an AC50 of 16.2 µM.
In the case of C/C=C/c1ccc([C@H]2[C@@H](CNC(=O)CC)N(Cc3ccccn3)[C@H]2CO)cc1, the AC50 was 45 µM.
With O=C(CCS(=O)(=O)c1ccc(F)cc1)Nc1nc(-c2ccccn2)cs1 the AC50 was 6.22 µM.
For CCN(CC)c1ccc(Nc2nc(N3CCOCC3)c3ccccc3n2)cc1, the AC50 was 4.99 µM.
In the case of OCCN1CCN(Cc2cc(Cl)c3cccnc3c2O)CC1, the AC50 was 1.34 µM.
CC(=O)NC(c1ccc2ccccc2c1)c1ccc2cccnc2c1O (stereo unspecified) gave an AC50 of 5.44 µM.
With c1ccc(-c2nnc(-c3ccccn3)nc2NCCCN2CCOCC2)cc1 the AC50 was under 0.5 µM.
O=C(NNc1ccccn1)C(=O)NNS(=O)(=O)c1ccc(Cl)cc1 gave an AC50 of 15.6 µM.
Compound Cc1[nH][nH]c(=O)c1C(c1ccc(-c2ccc(F)cc2)o1)c1c(C)[nH][nH]c1=O has an AC50 of 19.6 µM.
For O=C(NCCCn1ccnc1)C(=O)NCC1OCCN1S(=O)(=O)c1ccccc1 (stereo unspecified), the AC50 was 6.92 µM.
For CCO/C=C1/C(=O)N(Cc2ccccc2)C(=O)c2ccccc21, the AC50 was 29 µM.
c1ccc(-c2cn(C[C@H]3CC[C@@H]([C@@H]4CC[C@H](Cn5cc(-c6ccccn6)nn5)O4)O3)nn2)nc1 showed an AC50 of 0.659 µM.
Compound Oc1c(Cl)cc(CN2CCOCC2)c2cccnc12 has an AC50 of 1.15 µM.
Work on c1ccc(-c2nnc(-c3ccccn3)nc2N2CCN(c3ccncc3)CC2)cc1 yielded an AC50 of under 0.5 µM.
O=C(Nc1nc(-c2ccccn2)cs1)c1ccc(F)c(S(=O)(=O)N2CCOCC2)c1 was tested, and the AC50 was 2.76 µM.
For CC(=O)N1CCc2[nH]c3ccc(C)cc3c2C1, the AC50 was 13.9 µM.
Cc1ccc(-c2cnc(N)n2C)cc1C showed an AC50 of 41.1 µM.
In the case of CCOC(=O)c1cnc(-n2[nH]c(C)cc2=O)[nH]c1=O, the AC50 was 0.754 µM.
In the case of O=S(=O)(N[C@@H]1CC[C@H](CCn2cc(-c3ccccn3)nn2)O[C@@H]1CO)c1cccc(F)c1, the AC50 was 29.1 µM.
CSCc1cc(N(C)c2ccccc2)nc(-c2ccccn2)n1 showed an AC50 of 5.86 µM.
Compound CCOC(=O)c1c(C)[nH]c(N=Nc2cccc(C)c2)c1C has an AC50 of 17.8 µM.
With O=C(N[C@H]1CC[C@@H](CCn2cc(-c3ccccn3)nn2)O[C@H]1CO)c1ccc(F)cc1 the AC50 was 12.6 µM.
Work on c1ccc(-c2cnnc(-c3ccccn3)n2)cc1 yielded an AC50 of 2.57 µM.
For COc1cccc(/C=N/NC(=O)c2ccc3nc[nH]c3c2)c1O, the AC50 was 23.3 µM.
O=S(=O)(N[C@@H]1CC[C@@H](CCn2cc(-c3ccccn3)nn2)O[C@H]1CO)c1cccc(F)c1 was tested, and the AC50 was 21.5 µM.
Work on O=C(COc1ccccc1)Nc1nnc(-c2ccco2)o1 yielded an AC50 of 36.6 µM.
Nc1nc(CN2CCN(Cc3ccccc3)CC2)nc(Nc2ccc3c(c2)OCCO3)n1 showed an AC50 of 65.8 µM.
For c1ccc(CNc2nc(-c3ccccn3)nnc2-c2ccccc2)cc1, the AC50 was under 0.5 µM.
With COc1cccc(/C=N/NC(=O)CNC(=O)c2ccncc2)c1O the AC50 was 64.8 µM.
With CSCC[C@H](NC(=O)OC(C)(C)C)C(=O)N/N=C/c1cccc2cccnc12 the AC50 was 22.9 µM.
For Cn1c(CNc2ccccc2O)nc2ccccc21, the AC50 was 21.8 µM.
For COc1cccc(/C=N/NC(=O)C(=O)N2CCCCCC2)c1O, the AC50 was 18.8 µM.
O=C(NC[C@H]1[C@@H](c2ccccc2)[C@@H](CO)N1Cc1ccccn1)C1CC1 showed an AC50 of 48.4 µM.
Cc1cccc(NC(=O)CSc2cccc3cccnc23)c1C gave an AC50 of 33.7 µM.
Compound Oc1cc(-c2ccncc2)cc2cccnc12 has an AC50 of 0.771 µM.
O=C(N/N=C/c1cc([N+](=O)[O-])ccc1O)c1ccncc1 was tested, and the AC50 was 1.01 µM.

— PubChem BioAssay AID651703 (Broad Institute, 2012)
